Measured values as given in US10377741B2, “Substituted heteroaryl aldehyde compounds and methods for their use in increasing tissue oxygenation” (Global Blood Therapeutics, Inc., priority 2011, dated 2019).

Each compound was assayed against T1, purified Hemoglobin S (HbS) (Homo sapiens, UniProt P68871+P69905, E7V) (assay: Modulation of hemoglobin oxygen affinity: oxygen equilibrium curves (HEMOX) in purified HbS). Conditions: compound at 30 μM; 25 μM purified HbS, 45 min at 37° C.
T1 construct: HbS was purified by a modified procedure; from tissue; host or cells: blood of homozygous sickle cell patients (CHORI); for the polymerization assay purified by the CRO VIRUSYS
Type: biochemical, human (homozygous sickle cell patients)
Protocol: Oxygen equilibrium curves (OEC) in purified Hemoglobin S (HbS) were measured by the change in p50, the partial pressure of oxygen at which the heme binding sites in the HbS sample are 50% saturated with oxygen. HbS was purified by a modified procedure (Antonini and Brunori, 1971; Heomoglobin and Myoglobin in their Reactions with Ligands; North Holland Publishing Company; Amsterdam, London) from blood obtained from homozygous sickle cell patients though the Hemoglobinopathy Center at Children's Hospital Oakland Research Institute (CHORI) with Institutional Review Board approval. Oxygen equilibrium curves were carried out with a HEMOX analyzer, (TCS Scientific, New Hope, Pa.). Five hundred μL of 250 μM purified HbS were diluted into 4.5 mL of HEMOX buffer (30 mM TES, 130 mM NaCl, 5 mM KCl, pH=7.4) resulting in a final hemoglobin concentration of 25 μM. The compounds were added at the final desired concentrations. The mixture was incubated for 45 min at 37° C. and then transferred to the Hemox sample chamber. The samples were saturated with oxygen by flushing with compressed air for 10 minutes. The samples were then flushed with pure nitrogen and the absorbance of deoxy-Hb was recorded as a function of the solution pO2. The oxygen equilibrium data was then fit to the Hill Model to obtain values for p50. The deoxygenation curves for both HbS alone (control) and HbS in the presence of compound were collected with the TCS software. The p50 for purified Hbs was typically 13.8±1.6. Delta p50 values were obtained from the p50 value for control minus the p50 value for HbS treated with compound divided by the p50 value for the control.
The compounds of Table 1 that were where tested in the assay above were all found to have positive delta p50 values. Delta p50% is calculated from [[p50(HbS) −p50(HbS treated with compound)]/p50(HbS)]×100. Table 2 below lists the delta p50% values where + indicates a delta p50% of between 0 and 29, ++ indicates a delta p50% of between 30 and 50, and +++ indicates a delta p50% of 50 or greater. Unless noted otherwise, the compounds in Table 2 were tested at 30 μM.

Compound	delta p50%
COc1cc(C=O)c(OCc2ccnc3cccnc23)cn1 [Compound 105, 5-((1,5-naphthyridin-4-yl)methoxy)-2-methoxyisonicotinaldehyde]	+ (a delta p50% of between 0 and 29)
COc1cc(C=O)c(OCc2ccc3[nH]ncc3c2)cn1 [Compound 107, 5-((1H-indazol-5-yl)methoxy)-2-methoxyisonicotinaldehyde]	+ (a delta p50% of between 0 and 29)
Cc1ccc(OCc2ccc3c(c2)c(Cl)nn3C)c(C=O)n1 [Compound 109, 3-((3-chloro-1-methyl-1H-indazol-5-yl)methoxy)-6-methylpicolinaldehyde]	+ (a delta p50% of between 0 and 29)
COc1cc(C=O)c(OCc2ccc3c(cnn3C)c2)cn1 [Compound 110, 2-methoxy-5-((1-methyl-1H-indazol-5-yl)methoxy)isonicotinaldehyde]	+ (a delta p50% of between 0 and 29)
COc1cc(C=O)c(OCc2ccc3c(c2)c(Cl)nn3C)cn1 [Compound 111]	+ (a delta p50% of between 0 and 29)
COc1cc(C=O)c(NC(=O)c2cccn3ccnc23)cn1 [Compound 112, N-(4-formyl-6-methoxypyridin-3-yl)imidazo[1,2-a]pyridine-8-carboxamide]	+ (a delta p50% of between 0 and 29)
Cc1ccc(OCc2ccnc3c2c(C)nn3C)c(C=O)n1 [Compound 113, 3-((1,3-dimethyl-1H-pyrazolo[3,4-b]pyridin-4-yl)methoxy)-6-methylpicolinaldehyde]	+ (a delta p50% of between 0 and 29)
COc1cc(C=O)c(OCc2ccnc3c2c(C)nn3C)cn1 [Compound 114, 5-((1,3-dimethyl-1H-pyrazolo[3,4-b]pyridin-4-yl)methoxy)-2-methoxyisonicotinaldehyde]	+ (a delta p50% of between 0 and 29)
COc1cc(C=O)c(OCc2cc3ccccc3nc2Cl)cn1 [Compound 116, 5-((2-chloroquinolin-3-yl)methoxy)-2-methoxyisonicotinaldehyde]	+ (a delta p50% of between 0 and 29)
COc1cc(C=O)c(OCc2cc3ccccc3nc2-c2ccn[nH]2)cn1 [Compound 117]	+ (a delta p50% of between 0 and 29)
COc1cc(C=O)c(OCc2cnc3ccccc3n2)cn1 [Compound 118, 2-methoxy-5-(quinoxalin-2-ylmethoxy)isonicotinaldehyde]	+ (a delta p50% of between 0 and 29)
Cc1ccc(OCc2cnc3c(cnn3C)c2)c(C=O)n1 [Compound 121, 6-methyl-3-((1-methyl-1H-pyrazolo[3,4-b]pyridin-5-yl)methoxy)picolinaldehyde]	+ (a delta p50% of between 0 and 29)
COc1cc(C=O)c(OCc2cnc3c(cnn3C)c2)cn1 [Compound 122, 2-methoxy-5-((1-methyl-1H-pyrazolo[3,4-b]pyridin-5-yl)methoxy)isonicotinaldehyde]	+ (a delta p50% of between 0 and 29)
COc1cc(C=O)c(OCc2c(-c3cc[nH]n3)ccn3cncc23)cn1 [Compound 123, 5-((7-(1H-pyrazol-3-yl)imidazo[1,5-a]pyridin-8-yl)methoxy)-2-methoxyisonicotinaldehyde]	+ (a delta p50% of between 0 and 29)
COc1cc(C=O)c(OCc2cncc(-c3nn[nH]n3)c2)cn1 [Compound 124, 5-((5-(2H-tetrazol-5-yl)pyridin-3-yl)methoxy)-2-methoxyisonicotinaldehyde]	+ (a delta p50% of between 0 and 29)
COc1cc(C=O)c(OCc2cc(-c3nn[nH]n3)cn3ccnc23)cn1 [Compound 125, 5-((6-(2H-tetrazol-5-yl)imidazo[1,2-a]pyridin-8-yl)methoxy)-2-methoxyisonicotinaldehyde]	+ (a delta p50% of between 0 and 29)
CCOC(=O)C1CSC(c2cc(OC)ncc2OCc2cccn3ccnc23)N1 (centres unmarked) [Compound 126, ethyl 2-(5-(imidazo[1,2-a]pyridin-8-ylmethoxy)-2-methoxypyridin-4-yl)thiazolidine-4-carboxylate]	+ (a delta p50% of between 0 and 29)
